# How the values were obtained:
# [1] = Heart rate post-MnCl2 infusion
# Protocol: MEMRI experiments were performed in 62 healthy adult male C57Bl/6 mice (6-14 weeks old, 24.0±1.9 g) following the guidelines of the Institutional Animal Care and Use Committee at the Medical College of Georgia, Augusta, Ga., USA. For all experimental procedures, the animals were anesthetized with a mixture of medical air, oxygen (1:1) and 2.5-3.0% isoflurane. The heart rate (HR) was maintained at 436±42 beats per minute (bpm) throughout the experiment by carefully adjusting the level of isoflurane. A custom-made water bed set at 38° C. maintained a constant animal body temperature in the cradle throughout the MEMRI procedure.
# MEMRI data were acquired on a 7.0-T 20-cm horizontal bore Bruker BioSpec MRI spectrometer (Bruker Instruments, Billerica, Mass., USA) equipped with a micro-imaging gradient insert (950 mT/m). […] A standard Bruker volume coil (35 mm inner diameter) was used to transmit and receive at ^1H frequency (300 MHz). Electrocardiographic (ECG) and respiratory signals were monitored by a physiological monitoring system (SA Instruments, INC., Stony Brook, N.Y.) with the ECG signal used to gate the images. All images were gated from the ECG R-wave acquired during end-diastole. Short axis images were acquired midway through the left ventricle and perpendicular to the long axis of the heart. A T1-weighted MRI Gradient Echo Flow Compensation (GEFC) pulse sequence was used for slice localization with the imaging parameters as follows: matrix=128×128; TE=3.5 ms; TR=35 ms; slice thickness=1.0 mm; FOV=3.0×3.0 cm; flip angle=60° and NA=6. TR was purposely set at a time shorter than the R-R period (138±1.5 ms) detected on the ECG. Therefore, the true repetition time for the imaging sequence was the R-R period.
# [2] = Absolute Mn content in heart tissue by ICP-MS; assay type: in vivo, C57Bl/6 mice; details: 50 mg/kg SEA0400; approximately 6 hours post-MnCl2
# Protocol: As previously stated, all mice were anesthetized during the experimental procedures: contrast agent infusion, drug administration, and imaging sessions. The mice were allowed to recover between procedures so as to […] the time each mouse was under anesthesia to 2.5 hours, which was then followed by a recovery period of at least 2.5 hours. This protocol minimized any physiological effects caused by the anesthesia; imaging time points selected for each mouse followed these guidelines. In addition, efforts were made to alter the time interval between successive data points so as not to bias the results with potential anesthesia effects. […] A subgroup of randomly selected animals (n=16) was sacrificed immediately after imaging to measure absolute Mn content in heart tissue (n=14) and blood samples (n=6) by inductively coupled plasma-mass spectrometry (ICP-MS) analysis ([…] Ltd., North Vancouver, BC, Canada). The samples were harvested approximately one hour after the initiation of the final T1-map. This time delay was due to the length of time required to acquire the T1-map, and the time required to harvest the samples, and remained constant for all of the samples. […] No statistically significant differences between the groups were found following linear least-square fitting to the data. […]
# NCX = biological target: T1, NCX (Mus musculus, UniProt P70414); assay: MEMRI T1-mapping of LV Wall ΔR1 washout (Mn2+ efflux) after MnCl2 infusion, with or without NCX inhibitor; assay type: in vivo, C57Bl/6 mice; details: for average LV Wall ΔR1: 4.9-5.9 hours post-MnCl2 infusion; for ΔR1,0 (extrapolated ΔR1 at the time of MnCl2 infusion): fit t>=1 hour
# T1 construct: from tissue; host or cells: myocardium (left ventricular free wall) of living C57Bl/6 mice
compound,measurement,setting,value
CCOc1ccc(Oc2ccc(OCc3cc(F)ccc3F)cc2)c(N)c1 [SEA0400],average post-MnCl2 infusion heart rate,[1]; 20 mg/kg SEA0400,449±30 bpm
same,average post-MnCl2 infusion heart rate,[1]; 50 mg/kg SEA0400,443±28 bpm
same,difference in heart rate between the experimental groups,"[1]; control, 20 mg/kg and 50 mg/kg SEA0400, p=0.08",No significant differences in HR
same,absolute cardiac Mn concentration,[2],27.1 µg/g
same,average LV Wall ΔR1,NCX; 20 mg/kg SEA0400,1.72 ± 0.24 s⁻¹
same,half-life versus control group (extra sum-of-squares F test),"NCX; 20 mg/kg SEA0400, p=0.54",not statistically different from the control group
same,"ΔR1,0 (extrapolated ΔR1 at the time of MnCl2 infusion)",NCX; 20 mg/kg SEA0400 i.p. one hour post-MnCl2,4.8 ± 0.2 s⁻¹
same,average LV Wall ΔR1,NCX; 50 mg/kg SEA0400,2.46 ± 0.29 s⁻¹
same,half-life versus control group (extra sum-of-squares F test),"NCX; 50 mg/kg SEA0400, p=0.006",significantly different from the control group
same,"ΔR1,0 (extrapolated ΔR1 at the time of MnCl2 infusion)",NCX; 50 mg/kg SEA0400 i.p. one hour post-MnCl2,4.3 ± 0.4 s⁻¹
